# From US20020155172A1, “Methods and compounds for decreasing cell toxicity or death” (priority 2000, published 2002)
# What was measured:
# [1] = test system: neuroblastoma (SHSY) cells transfected with Q79-GFP; assay: Expanded polyglutamine aggregation and cell death in neuroblastoma (SHSY) cells; format: cell-based; details: Congo red 1.5 to 100 nM
# Method: Cells, including neuroblastoma cells, HeLa cells, primary neuronal cells, and primary embryonic neuronal cells were transiently transfected with the plasmid […]-GFP, encoding 79 glutamines followed by the jellyfish green fluorescent protein (Sanchez et al., supra). Expression of […]-GFP was observed 48 or 72 hours after transfection by visual inspection of GFP-positive cells using an inverted fluorescence microscope. In a cell expressing […]-GFP polypeptides, polyglutamine aggregates are formed and the cell dies by apoptosis (Sanchez, supra). Cell viability was determined by morphological criteria characteristic of apoptosis, including cell blebbing, shrinking. Total cell lysates and tissue homogenates were obtained using Buffer A: 1% triton in PBS, containing 10 μg/ml DNAse and protease inhibitors; leupeptin 20 μg/ml, aprotinin 20 u/ml, and PMSF 100 mM. […] These effects were determined by visual inspection of GFP-positive cells under an inverted fluorescence microscope. […] Cells expressing […]-GFP were incubated in cell culture media containing Congo red and evaluated for the effect of Congo red on polyglutamine aggregation and cell death. […] The cells were then scored the presence of visible oligomers by fluorescence microscopy. Cells in which oligomers were not detected at this level of resolution were scored as cells lacking polyglutamine aggregates. […]
# R62 mice = assay: Survival; format: in vivo; details: infused intraperitoneally
# Excerpt: FIG. 10G is a graph of the effect of PBS (vehicle; delivered intraperitoneally) or Congo red, infused intraperitoneally, on survival of HD transgenic mice.
# (§1) In addition, the ability of Congo red to inhibit the formation as well as to disrupt preformed polyglutamine oligomers allowed us to examine the role of polyglutamine aggregates in neuronal dysfunction and degeneration characteristic of polyglutamine expansion diseases. In these studies, we used the animal model of Huntington's disease (R62), which expresses the truncated form of huntingtin with 139 CAG repeats Mangiarini et al. (supra). We took advantage of our finding that in addition to inhibiting polyglutamine oligomerization, Congo red also disrupts pre-formed oligomers, thus allowing assessment of the impact of Congo red on disease progression after formation of polyglutamine aggregates and the onset of symptoms. R62 transgenic mice and CBAxC57B1/6 F1 wild type littermates were obtained from Jackson Laboratories (Bar Harbor, Me.) at the age of five weeks. […]
# The initial abnormal neurological signs of R62 mice include dyskinesia of the hindlimbs when mice were suspended by the tail, and irregular gait. […] The effect of Congo red on motor performance in R62 mice was also assessed by rotarod studies. […]
# [2] = test system: wild type mice and R62 mice; assay: Tolerability of Congo red in mice; format: in vivo
# Method: The latter procedure involved administration of 0.25 μl of the drug (1 mg/ml in 0.4% DMSO) per hour, for a period of at least 28 days. The treatment began at the latter part of the seventh week. When treatment began, although very little motor symptomology was observed, tremors were becoming apparent. Polyglutamine inclusions were readily detected at the beginning of treatment. The effect of Congo red on the polyglutamine-induced toxicity in muscle strength in the animal model R62 was quantified by the use of a rotorod.
# as §1
# [3] = test system: non-transfected HeLa cells; assay: Total cellular protein degradation; format: cell-based; details: Congo red 100 μM, ZVAD 100 μM, MG132 10 μM; H3-tyrosine release, 0 to 180 minutes
# Method: FIG. 8C is a graph of the effect of effect of Congo red, ZVAD, or the proteosome inhibitor MG132 on total cellular protein degradation in non-transfected HeLa cells.
# To rule out the possibility that Congo red may have an effect on protein degradation in general, we tested the effect of Congo red on proteosome degradation. Rates of total cellular protein degradation experiments, from cells seeded in 12 well dishes at 2×10^4, treated with Congo red (100 μM), ZVAD (100 μM), or the proteosome inhibitor MG132 (10 μM) and labeled with 5 μCi/ml of H^3-tyrosine for 1 hour. One hundred microliter culture medium aliquots were collected at 0, 30, 60, 90, 120, and 180 minute time points, and the levels of H^3-tyrosine were determined using an LS6000 scintillation counter (Beckman, Co).
structure (smiles),measurement,setting,value
"Nc1c(/N=N/c2ccc(-c3ccc(/N=N/c4cc(S(=O)(=O)O)c5ccccc5c4N)cc3)cc2)cc(S(=O)(=O)O)c2ccccc12 [Congo red, diphenyldiazo-bis-alpha-napthylaminesulfonate]",cell death,[1],significantly reduced cell death
same,formation of polyglutamine aggregates,[1],inhibited the formation of polyglutamine aggregates
same,mean survival length,R62 mice,106 days
same,gross morphological abnormalities or symptoms,"[2]; IP or ICV infusion, normal wild type mice or pre- or post-symptomatic R62 mice",no gross morphological abnormalities or induction of any obvious symptoms
same,drug toxicity,[2]; intraperitoneal injection up to 13 mg/kg every 48 hours for two weeks,no obvious drug toxicity
same,general protein degradation,[3],neither Congo red nor ZVAD had any effect
